Literature values as cited in article PMC4942611, “Promising Tools in Prostate Cancer Research: Selective Non-Steroidal Cytochrome P450 17A1 Inhibitors” (Scientific Reports, 2016).
Like-named read-outs stand apart in the source and are kept apart here.

System: CYP17A1
Set-up: method as in PMID 24775307
Conditions: cited from earlier work

## CC(C)[C@](O)(c1ccc2cc(OC(F)F)c(OC(F)F)cc2c1)c1c[nH]nn1 [VT-464]
read-out: IC50 hydroxylase step
  IC50: 0.67 µM
read-out: IC50 lyase step
  IC50: 0.069 µM
